Test [1] addresses T1, cloned human MT2 receptors (Homo sapiens, UniProt P49286).
T1 construct: expressed in transfected cells
T1 sequence (P49286 1-362): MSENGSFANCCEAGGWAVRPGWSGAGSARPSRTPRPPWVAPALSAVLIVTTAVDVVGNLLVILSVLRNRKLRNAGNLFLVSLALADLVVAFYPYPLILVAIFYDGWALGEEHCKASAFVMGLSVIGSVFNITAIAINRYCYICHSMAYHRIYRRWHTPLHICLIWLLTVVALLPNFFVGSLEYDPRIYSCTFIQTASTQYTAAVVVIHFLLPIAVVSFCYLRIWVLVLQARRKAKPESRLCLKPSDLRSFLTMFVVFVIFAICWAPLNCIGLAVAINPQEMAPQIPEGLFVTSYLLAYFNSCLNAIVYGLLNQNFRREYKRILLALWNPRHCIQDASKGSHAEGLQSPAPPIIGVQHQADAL
As to the kind of experiment: 2-[125I]iodomelatonin competition binding, human MT2 in NIH3T3 cells. Conditions: human recombinant receptors expressed in NIH3T3 cells.

For test [2], the system named is Male rats (Sprague-Dawley). Put plainly: EEG and EMG sleep recordings (slow wave sleep, REM sleep, wakefulness). The format is in vivo, rat. To be noted: 5b 40 mg/kg s.c.; individual rats 1-11. The procedure: Male rats (Sprague-Dawley) weighing approximately 300-340 g were used for surgical implantation of electroencephalogram (EEG) and electromyogram (EMG) electrodes. Following the recovery from surgery, the animals were housed separately in cages and kept on a 12-hour light/dark cycle (12 h light-12 h dark, 7:30 AM lights on) at a controlled temperature (21° C.). The rats had free access to food and water ad libitum.
Rats were anaesthetized using equithesin (425 mg chloral hydrate, 1 ml 100% ethanol, 98 mg pentobarbitone, 213 mg magnesium sulphate and 3 ml propylene glycol, sterile water per 10 ml of solution; 1 ml per 300 g body weight i.p.) and placed in a stereotactic frame. The skull was exposed and carefully cleaned. Two stainless-steel epidural electrodes were implanted for the registration of the EEG under stereotactic control, through 1.5 mm burr holes at the coordinates corresponding to the right parietal-occipital cortex (AP=−2 mm L=3 mm; AP=−7 mm L=3 mm) and the left parietal-occipital cortex (AP=−4.5 mm L=3 mm) according to the atlas by Paxinos (The Rat Brain in Stereotaxic Coordinates, Academic Press, 1995). Three stainless steel wire electrodes, isolated except for the last few millimeters, were implanted into the neck muscles (two bilaterally and one in the middle) for the monitoring of the EMG. The EEG epidural electrodes and the EMG wires were fitted to a six-pin female connector. For fixation to the skull, the wires and connector were covered with dental acrylic (Coltene/Whaledent Inc. USA). The animals were allowed to recover from the surgery for at least 3-4 days.
Twenty-four hours (24 h) following the surgery, the rats were placed in the recording room from noon to 9:00 PM, for 3-4 days. The rats were connected to the 6-flat cable (3M), in a freely-moving manner, from 6:00 PM to 9:00 PM for habituation. No recordings were performed at this time, however, the tolerance to the cable and the sleep behavior were observed.
Following 3-4 days of habituation, the rats received the injection of a vehicle (DMSO/saline 7:3, 0.2 ml s.c.) at 6:00 PM and the recording was carried out until 9:00 PM. On the following day the rats received diazepam (2 mg/kg, s.c.) at 6:00 PM and the recording was performed until 9:00 PM. Four days following the injection of diazepam, the rat received 5b (40 mg/kg s.c.) and the recording also performed from 6 to 9 PM.
For each experiment, a rat was placed individually in the cage and monitoring of the signal was carried out via the attachment of a non-restraining 6-wire flat cable and a female connector, which was connected to an impedance transformer with a gain of 10, located above the cage. The EEG signal was amplified (resulting in a total gain of 10,000) and locally filtered. The EMG signal was amplified as the EEG, (EEG: low filter 1.0 Hz; high 1 KHz, EMG: low filter 30.0 Hz; high 3 KHz). The power spectra analysis was performed for identification of the sleep stages. The behavior of the animals was observed during the experiment (eye movements, ambulation, rearing etc.).
The three classical vigilance-sleep states described in the rat were discriminated on the basis of the cortical EEG and neck EMG, following the classification by Ruigt et al. (Electroencephalography and clinical Neurophysiology, 1989, 73: 52-63). Wakefulness was identified by a low-amplitude and desynchronized EEG with sustained EMG activity. Slow wave sleep (SWS, includes Quiet sleep, deep sleep and Pre-REM) was clearly distinguished by high-voltage delta waves (2-4 Hz) and spindles associated with a […] EMG activity. Pre-REM sleep was characterized by a clear theta rhythm in the EEG, frequently alternating with short lasting, high voltage spindles. REM sleep was characterized by a low-amplitude EEG with a pronounced theta rhythm (5.5-8.5 Hz), a complete loss of muscle tone, and a low voltage EMG. […]

Where “and” joins values, the source holds several entries; their conditions need not be identical. Equal entries are not always repeated.

Take `COc1cccc(N(CCNC(C)=O)c2ccccc2)c1` [5b, N-{2-[(3-Methoxyphenyl)-phenylamino]ethyl}acetamide]: the “higher affinity for the MT2 than for the MT1 subtype” value in test [1] is given as approximately 100 fold. Besides, in test [2], the “REM Sleep Duration” value is 8.66 min and 7.04 min and 13.89 min and 4.96 min and 8.51 min and 11.6 min and 5.61 min and 7.2 min and 11.18 min and 11.76 min and 9.48 min; the “REM Sleep Latency” value was 76.1 min and 62.31 min and 60.92 min and 109.5 min and 86.49 min and 71.16 min and 80.13 min and 101.41 min and 80.26 min and 54.26 min and 43.83 min; the “REM Sleep Mean of a Single Episode” value was 1.237 min and 1.76 min and 1.54 min and 1.65 min and 1.063 min and 1.933 min and 1.402 min and 2.4 min and 2.23 min and 1.68 min and 1.896 min; the “REM Sleep Number (episodes)” value was 7 episodes (2×) and 4 episodes (2×) and 9 episodes and 3 episodes (2×) and 8 episodes and 6 episodes and 5 episodes (2×). Further, in test [2], the “Slow Wave Sleep Duration” value was 110.29 min and 73.51 min and 87.14 min and 92.65 min and 89.42 min and 80.00 min and 88.47 min and 79.1 min and 85.8 min and 80.84 min and 104.2 min; the “Slow Wave Sleep Latency” value is 15.73 min and 2.73 min and 1.05 min and 11.9 min and 10.85 min and 23.2 min and 25.9 min and 17.62 min and 5.05 min and 25.12 min and 17.24 min; the “Slow Wave Sleep Mean of a Single Episode” value was 5.01 min and 2.53 min and 3 min and 3.3 min and 3.43 min and 4.21 min and 2.6 min and 2.26 min and 6.12 min and 7.34 min and 7.44 min; the “Slow Wave Sleep Number (episodes)” value was 22 episodes and 29 episodes (2×) and 28 episodes and 26 episodes and 19 episodes and 34 episodes and 35 episodes and 14 episodes (2×) and 11 episodes. In test [2], the “Wakefulness Duration” value is 82.38 min and 82.05 min and 88.37 min and 85.99 min and 93.61 min and 83.69 min and 87.41 min and 90.48 min and 61.05 min and 92.11 min and 78.94 min; the “Wakefulness Mean of a Single Episode” value was 3.39 min and 3.54 min and 3.28 min and 2.94 min and 3.56 min and 4.9 min and 2.38 min and 2.75 min and 6.43 min and 14.56 min and 7.54 min; the “Wakefulness Number (episodes)” value is 18 episodes (2×) and 26 episodes and 24 episodes and 28 episodes and 23 episodes and 36 episodes and 34 episodes and 13 episodes and 6 episodes and 12 episodes.

Source of the values: US8791163B2 (McGill University, priority 2006, dated 2014).
